In PubChem BioAssay AID463203 (Broad Institute, 2010):
Active and inactive are the calls of the source.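 The calls were made as follows: active = more than half of replicate measurements showing over 20% loss of kinase signal relative to plate controls; inconclusive = some but at most half of replicates over 20% loss; inactive = no replicate over 20% signal loss.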

biological target: Glycogen synthase kinase-3 alpha (Homo sapiens) (UniProt P49840); experiment: concentration-response blocking of human GSK3A – biochemical, luminescence, cell-free homogeneous, retest, dose response (AID 463203); settings: GSK-3 alpha enzyme, ADP-Glo luminescence, 60 min
Sequence (P49840 whole entry, looked up): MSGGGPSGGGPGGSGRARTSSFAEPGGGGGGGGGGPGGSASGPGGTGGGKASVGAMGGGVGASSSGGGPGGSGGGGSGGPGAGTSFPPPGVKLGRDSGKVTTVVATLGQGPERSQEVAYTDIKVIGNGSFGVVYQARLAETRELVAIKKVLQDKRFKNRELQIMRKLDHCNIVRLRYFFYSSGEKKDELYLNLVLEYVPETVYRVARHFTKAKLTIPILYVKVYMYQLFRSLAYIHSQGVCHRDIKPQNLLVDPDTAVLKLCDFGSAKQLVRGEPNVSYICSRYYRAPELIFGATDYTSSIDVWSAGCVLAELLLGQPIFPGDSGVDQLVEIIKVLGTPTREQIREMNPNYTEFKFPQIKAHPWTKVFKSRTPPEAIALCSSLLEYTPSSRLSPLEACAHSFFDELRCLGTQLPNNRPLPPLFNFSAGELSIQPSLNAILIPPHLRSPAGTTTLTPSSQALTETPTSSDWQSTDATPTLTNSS

Row | SMILES | AC50
1 | COc1ccccc1-c1noc(CSc2nc(N)cc(=O)[nH]2)n1 | > 30 µM (inactive)
2 | CCOC(=O)Cc1c[nH]c2ccccc12 | > 30 µM (inactive)
3 | Cc1sc2ncnc(SCC(=O)NCC3CCCO3)c2c1C (stereo not drawn) | > 30 µM (inactive)
4 | NC1=NC(=O)/C(=C\c2ccco2)S1 | > 30 µM (inactive)
5 | O=C(CN(Cc1ccco1)C(=O)CCC(=O)Nc1ccccn1)NCc1ccccc1 | > 30 µM (inactive)
6 | c1ccc2c(c1)ccc1nnc(SCc3ccc4c(c3)OCO4)n12 | > 30 µM (inactive)
7 | Cc1ccc(NC(=O)CSCc2nc3c(nnn3Cc3ccc(F)cc3)c(=O)[nH]2)c(C)c1 | > 30 µM (inactive)
8 | O=c1[nH]c(=O)n(Cc2ccc(F)cc2)c(O)c1C=NCCCn1ccnc1 | > 30 µM (inactive)
9 | CNc1nnc(-c2cc3ccccc3oc2=O)s1 | 8.99 µM
10 | CN1/C(=C\C=C(/C#N)C(=O)Nc2ccc(Cl)cc2)C(C)(C)c2ccccc21 | > 30 µM (inactive)
11 | CC(=O)Nc1ccc(NS(=O)(=O)c2cccc3nonc23)cc1 | > 30 µM (inactive)
12 | C/C(CC(=O)N(C(C)C)C(C)C)=N\NC(=O)COc1ccc(Cl)cc1Cl | > 30 µM (inactive)
13 | Oc1ccc2oc3c(c2c1C=NCc1ccncc1)CCCC3 | > 30 µM (inactive)
14 | Cc1ccc(NC(=O)c2cc(-n3cnnc3)ccc2Cl)cc1 | > 30 µM (inactive)
15 | CC(C)(C)C(=O)NC(=S)Nc1sc2c(c1C(N)=O)CCC2 | > 30 µM (inactive)
16 | Cc1cc(=O)[nH]c2c(C)c(N)ccc12 | > 30 µM (inactive)
17 | O=[N+]([O-])c1ccccc1-c1cc(-c2ccccc2O)n[nH]1 | > 30 µM (inactive)
18 | COc1ccc(NC(=O)Nc2ccccc2F)c(C)c1 | > 30 µM (inactive)
19 | CCNc1ccc2noc3c2c1C(=O)c1ccccc1-3 | 10.8 µM
20 | COc1cccc(C(=O)O/N=C(\N)c2ccccn2)c1OC | > 30 µM (inactive)
21 | Cc1cc(N2CCN(c3ccccc3)CC2)n2ncnc2n1 | > 30 µM (inactive)
22 | O=C(O)COc1c(Cl)cc(/C=C2/NC(=O)NC2=O)cc1Br | 23 µM
23 | O=C(O)C1CC(O)CN1C(=S)Nc1ccccc1 (stereo not drawn) | > 30 µM (inactive)
24 | COc1ccc(-c2c(C(C)=O)c(C)nc3sc4c(=O)[nH]nnc4c23)cc1 | 30.1 µM
25 | CC(Oc1ccccc1)C(=O)Nc1nnc(C2CCCCC2)s1 (stereo not drawn) | > 30 µM (inactive)
26 | Cc1cccc(C)c1OCC(O)CNC(C)(C)C (stereo not drawn) | > 30 µM (inactive)

Row | SMILES | AC50
27 | CCOC(=O)C1=C(c2ccccc2)Nc2ncnn2C1c1cccc(OC)c1OC (stereo not drawn) | 9 µM
28 | O=C1CCCN1CCCNc1ncccc1[N+](=O)[O-] | > 30 µM (inactive)
29 | C[C@H](CO)N1C[C@H](C)[C@@H](CN(C)S(=O)(=O)c2cccs2)Oc2c(NS(=O)(=O)c3ccc(F)cc3)cccc2C1=O | > 30 µM (inactive)
30 | CC1=C(C(=O)OC2CCCCC2)C(c2cccs2)n2c(nc3ccccc32)N1 (stereo not drawn) | > 30 µM (inactive)
31 | O=C(Nc1ccccc1-c1nnc(SCc2ccc(Cl)cc2Cl)o1)c1ccccc1 | > 30 µM (inactive)
32 | CN1/C(=C/C(=S)NC(=O)C2CCC2)C(C)(C)c2ccccc21 | > 30 µM (inactive)
33 | COc1ccc(CCNC(=O)CSc2nc3[nH]ncc3c(=O)n2-c2ccccc2OC)cc1OC | 1.89 µM
34 | CC1(C)CC(=O)C(C(c2cccnc2)C2C(=O)CC(C)(C)CC2=O)C(=O)C1 | > 30 µM (inactive)
35 | COc1ccc(OCc2nc(N)nc(Nc3ccc(C)cc3)n2)cc1 | > 30 µM (inactive)
36 | CCOC(=O)N1CCN(C(=O)CSc2ccc3nnc(-c4ccccn4)n3n2)CC1 | > 30 µM (inactive)
37 | O=C(Nc1cccc(O)c1)c1ccc([N+](=O)[O-])cc1Cl | > 30 µM (inactive)
38 | Nc1ncnc2c1ncn2[C@@H]1O[C@H](CNCc2ccccc2)[C@@H](O)[C@H]1O | > 30 µM (inactive)
39 | Cc1cc2nc(-c3ccc(=O)[nH]c3)n(Cc3ccccc3)c2cc1C | > 30 µM (inactive)
40 | COC(=O)[C@@H](NC(=O)NCc1ccc(F)cc1)C(C)C | > 30 µM (inactive)
41 | COc1cccc(-c2c(C(=O)N/N=C/c3ccoc3)nnn2-c2nonc2N)c1 | 7.92 µM
42 | COc1ccc(-c2cc(C(F)(F)F)nc(SCC(=O)NCc3cccs3)n2)cc1OC | > 30 µM (inactive)
43 | O=C1c2ccccc2-c2onc3ccc(NCc4ccco4)c1c23 | > 30 µM (inactive)
44 | CCC(=O)c1ccc(OCC(O)CN2CCCCC2)cc1 (stereo not drawn) | > 30 µM (inactive)
45 | Cc1ccc(-c2cn3cccnc3n2)cc1NC(=O)c1ccc(Br)o1 | > 30 µM (inactive)
46 | CC1CN(c2nc(N(C)c3ccccc3)nc(N)c2[N+](=O)[O-])CC(C)O1 (stereo not drawn) | > 30 µM (inactive)
47 | COc1ccc(-c2noc(CSc3nc(N)cc(=O)[nH]3)n2)cc1 | > 30 µM (inactive)
48 | O=C(c1ccco1)c1cn(CC(=O)N2CCCC2)c2ccccc12 | > 30 µM (inactive)
49 | O=C(O)c1ccc(N=Nc2c(O)[nH]c3ccc(Br)cc23)cc1 | 3.54 µM
50 | O=[N+]([O-])c1ccc(-c2nnc(CNC3CCCC3)o2)cc1 | > 30 µM (inactive)
51 | Nc1nonc1-n1nnc(C(=O)N/N=C/c2ccco2)c1CSc1ccccc1 | > 30 µM (inactive)
52 | Clc1ccc(C2=Nn3c(nnc3-c3cccnc3)SC2)s1 | > 30 µM (inactive)

Row | SMILES | AC50
53 | CCOC(=O)CSc1nc(N)c(C#N)c(-c2cccs2)c1C#N | > 30 µM (inactive)
54 | COc1cccc(-c2c(C(=O)N/N=C(\C)c3cccnc3)nnn2-c2nonc2N)c1 | > 30 µM (inactive)
55 | COc1ccc(CCNC2=C(Cl)C(=O)N(Cc3ccccc3)C2=O)cc1OC | > 30 µM (inactive)
56 | COc1cc(NC(=O)c2nnn(Cc3ccc(SC)cc3)c2N)cc(OC)c1 | 13.6 µM
57 | O=C(Nc1cc(F)cc(F)c1)c1ccc(NCCCN2CCCCCC2)c([N+](=O)[O-])c1 | > 30 µM (inactive)
58 | Cc1sc2ncnc(NCCN3CCOCC3)c2c1C | > 30 µM (inactive)
59 | O=C(CN1CCOCC1)Nc1cccc(Br)c1 | > 30 µM (inactive)
60 | CC1(C)CC(=O)C2=C(C1)Nc1ccccc1[S@]2=O | > 30 µM (inactive)
61 | CC(=O)N1CCN(c2ccccc2NC(=O)c2ccc(Br)o2)CC1 | 10.3 µM
62 | NNC(=O)CCCCCCCCCCOCCCCO | > 30 µM (inactive)
63 | Cc1nc(NCC2CCCO2)[nH]c(=O)c1CCC(C)C (stereo not drawn) | > 30 µM (inactive)
64 | COc1ccc(CCNc2nc(C)cc(C)n2)cc1OC | > 30 µM (inactive)
65 | COc1ccc2nc(NC(=O)CN3CCN(C)CC3)sc2c1 | > 30 µM (inactive)
66 | CC(=O)Nc1cccc(-c2csc(NCc3ccccc3)n2)c1 | > 30 µM (inactive)
67 | COc1ccc2c3c(cccc13)OC2=O | > 30 µM (inactive)
68 | CSc1ccc(C2C3(C#N)C(N)=NC4(OCCO4)C23C#N)cc1 (stereo not drawn) | > 30 µM (inactive)
69 | C#CCOCCOCCOCCNc1nc(N2CCN(C(=O)[C@H](CCC(=O)O)n3cc([C@@H](N)CCCCN)nn3)CC2)nc(N2CCN(C(=O)[C@H](CCC(=O)O)n3cc([C@@H](N)CCCCN)nn3)CC2)n1 | > 30 µM (inactive)
70 | COc1ccc2nc(NC(=O)CCc3cc(OC)c(OC)c(OC)c3)sc2c1 | 7.29 µM
71 | Cc1cccc(C)c1OCC(O)CNC(C)c1ccccc1 (stereo not drawn) | > 30 µM (inactive)
72 | COc1ccc(Nc2ccc(S(=O)(=O)N3CCCCC3)cc2[N+](=O)[O-])cc1OC | > 30 µM (inactive)
73 | Cc1ccc(NC(=O)c2cc(-n3cnnc3)ccc2Cl)c(C)c1 | > 30 µM (inactive)
74 | CC(=O)Nc1ccc2nsnc2c1 | > 30 µM (inactive)
75 | O=C(c1ccc(Cl)cc1)c1cnc(Nc2ccccc2Cl)s1 | > 30 µM (inactive)
76 | Cc1cnc(NC(=O)C2CC(=O)N(c3ccc4c(c3)OCCO4)C2)s1 (stereo not drawn) | > 30 µM (inactive)
77 | COc1cc(CN2CCN(Cc3ccc(C)cc3)CC2)c([N+](=O)[O-])cc1OC | > 30 µM (inactive)
78 | C=CCn1c(O)c(C=NCCCn2ccnc2)c(=O)[nH]c1=O | 14 µM

Row | SMILES | AC50
79 | Nc1c(C(=O)Nc2ccc3c(c2)OCCO3)nnn1Cc1ccccc1Cl | > 30 µM (inactive)
80 | O=C(CCn1[nH]c(=O)c2ccccc2c1=O)N1CCOCC1 | > 30 µM (inactive)
81 | CC(NC(=O)COc1ccccc1F)C1CC2CCC1C2 (stereo not drawn) | > 30 µM (inactive)
82 | CCOc1cc(/C=C2\SC(N)=NC2=O)ccc1O | 22.9 µM
83 | O=C(Nc1c(C(=O)O)oc2ccc(Br)cc12)c1ccccc1 | 3.44 µM
84 | Cn1ccnc1SCC(=O)Nc1ccc(Cl)cn1 | 23.1 µM
85 | Cn1c(=O)c2[nH]c(CNc3ccc(C(=O)O)cc3)nc2n(C)c1=O | > 30 µM (inactive)
86 | COc1ccc(CCNc2ccc(S(=O)(=O)N3CCCC3)cc2[N+](=O)[O-])cc1 | > 30 µM (inactive)
87 | CC1CCN(Cc2c(C(=O)N/N=C/c3cccc(Cl)c3)nnn2-c2nonc2N)CC1 | 2.73 µM
88 | c1ccc2c(c1)ccc1nnc(-c3ccc4c(c3)OCO4)n12 | > 30 µM (inactive)
89 | CN1CCN(c2ccc(NC(=O)c3ccc(Br)o3)cc2)CC1 | > 30 µM (inactive)
90 | Cc1ccc(C)c(N2CC(C(=O)Nc3nccs3)CC2=O)c1 (stereo not drawn) | > 30 µM (inactive)
91 | COC(=O)c1cn(-c2ccccc2)nc1-c1cccnc1 | > 30 µM (inactive)
92 | CC1(C)Cc2c(sc3ncn(N)c(=N)c23)CO1 | > 30 µM (inactive)
93 | CC(OC(=O)Cc1c[nH]c2ccccc12)C(=O)c1ccccc1 (stereo not drawn) | > 30 µM (inactive)
94 | O=C(NCC1CCN(Cc2ccccc2Cl)CC1)Nc1cccc(Cl)c1 | > 30 µM (inactive)
95 | CCOc1c(O)ccc(/C=C2\SC(=S)NC2=O)c1[N+](=O)[O-] | 20.8 µM
96 | CCN1CCN(Cc2cc(OC)c(OC)cc2[N+](=O)[O-])CC1 | > 30 µM (inactive)
97 | O=C1NC(=S)N/C1=C\c1ccc(N2CCOCC2)cc1 | > 30 µM (inactive)
98 | CCOc1cc(/C=N/O)ccc1OCc1ccc([N+](=O)[O-])cc1 | > 30 µM (inactive)
99 | COC(=O)c1ccc(CSc2nnc(SCc3ccc(C(=O)OC)o3)s2)o1 | > 30 µM (inactive)
100 | N#Cc1c2c(c(NCc3ccco3)n3c1nc1ccccc13)CCC2 | > 30 µM (inactive)
101 | CCOc1cccc(-c2c(C(=O)N/N=C/c3cccnc3)nnn2-c2nonc2N)c1 | 4.67 µM
102 | Cc1cc(C)c[n+](C2=C([O-])c3ccccc3C(=O)/C2=N\S(=O)(=O)c2cccs2)c1 | > 30 µM (inactive)
103 | CC1(C)Oc2ccc3ccc(=O)oc3c2-c2cn[nH]c21 | 7.97 µM
